Assay [1] addresses GGTase I (RhoA as substrate) (Homo sapiens, UniProt P49354+P53609). As to the kind of experiment: GGTase I filter-binding assay, RhoA as substrate (library screens). Type of assay: biochemical. The conditions noted are these: compound 50 μM, DMSO = 100%, smaller = better inhibition. How it is done:
(§1) The pilot library was screened for inhibitors of protein geranylgeranyltransferase type I. Protein prenyltransferase assays were carried out by using filter binding. Two different substrates, RhoA and K-Ras4B, were used for the assay. RhoA ends with the CaaL motif and is an exclusive substrate for GGTase I, while K-Ras4B ends with the CaaX motif and is modified by both GGTase I and FTase.
(§2) In the assay, a fixed concentration of 100 μM was used and the results are plotted for the inhibition of RhoA (vertical axis) as well as for K-Ras4B (horizontal axis). […] They are 2,6-diaryl-N-tosyl-1,2,5,6-tetrahydropyridine-3-carboxylic acids, except P2-D5 that is missing an aryl substituent at C2.
The % activity of GGTase I was determined as follows: a working solution that contained each compound in DMSO at the concentration of 1 mM was prepared. The working solution was added to GGTase I reaction mixture so that the final concentration of the compound is 50 μM. GGTase I activity was assayed by incubating [^3H]GGPP with K-Ras4B or RhoA protein in the presence of GGTase I and examining radioactivity incorporated into the substrate protein by spotting onto a filter paper. After washing with TCA, ethanol and acetone, the radioactivity retained on the filter was determined by the use of a scintillation counter. GGTase I activity in the presence of DMSO was taken as a 100% value and the activity in the presence of the compound was shown as percent activity compared with the 100% value. […] For 6-aryl-4-mercapto-N-sulfonyl-piperidine-3-carboxylic acid 11 the 4-mercapto substituent appeared critical to endowing GGTase inhibitory activity. […] 4-Chlorobenzylthio substituent was the next best; 12 compounds out of 21 containing the 4-chlorobenzylthio moiety were active. […]
A collection of 138 heterocycles was screened for their ability to inhibit the activity of human GGTase-I to geranylgeranylate K-Ras4B or RhoA. […] After 30 min, the degree of incorporation of tritiated geranylgeranyl groups was measured using a scintillation counter.

Assay [2] has as its target GGTase I (K-Ras4B as substrate) (Homo sapiens, UniProt P49354+P53609). As to the kind of experiment: GGTase I filter-binding assay, K-Ras4B as substrate (library screens). Type of assay: biochemical. On the procedure: as §1, §2
The % activity of GGTase I was determined as follows: a working solution that contained each compound in DMSO at the concentration of 1 mM was prepared. The working solution was added to GGTase I reaction mixture so that the final concentration of the compound is 50 μM. GGTase I activity was assayed by incubating [^3H]GGPP with K-Ras4B or RhoA protein in the presence of GGTase I and examining radioactivity incorporated into the substrate protein by spotting onto a filter paper. After washing with TCA, ethanol and acetone, the radioactivity retained on the filter was determined by the use of a scintillation counter. GGTase I activity in the presence of DMSO was taken as a 100% value and the activity in the presence of the compound was shown as percent activity compared with the 100% value. […] For 6-aryl-4-mercapto-N-sulfonyl-piperidine-3-carboxylic acid 11 the 4-mercapto substituent appeared critical to endowing GGTase inhibitory activity. […] 4-Chlorobenzylthio substituent was the next best; 12 compounds out of 21 containing the 4-chlorobenzylthio moiety were active. 4-Benzylthio substituent was also good; 7 piperidines out of 21 bearing 4-benzylthio group were active. […] 19 imines (C15>C12=C41>C40>C01=C11>C05=C10=C30=C35=C37=C38>C02, C03, C04, C06, C39=C43) out of 21 appeared in the GGTIs. […] This corresponds to 47 6-aryl-4-mercapto-N-sulfonyl-piperidine-3-carboxylic acids out of 357 compounds.
A collection of 138 heterocycles was screened for their ability to inhibit the activity of human GGTase-I to geranylgeranylate K-Ras4B or RhoA. Purified GGTase-I was incubated with its substrate protein K-Ras4B or RhoA, [^3H]GGPP, and the 138 compounds. After 30 min, the degree of incorporation of tritiated geranylgeranyl groups was measured using a scintillation counter.

For the next assay, the target named is T1, FTase (Rattus norvegicus, UniProt Q02293+Q04631).
T1 construct: purchased JENA BIOSCIENCE
As to the kind of experiment: In vitro FTase assay (K-Ras4B substrate, [3H]FPP). The note with it: P3-D9, P3-E5: concentration increased to 100 (unit not given). Type of assay: biochemical. The source says:
To further characterize the pilot library, inhibitors of protein farnesyltransferase were identified. This was accomplished by using K-Ras4B as a substrate protein, tritiated farnesylpyrophosphate ([^3H]FPP) and protein farnesyltransferase. See Finegold, A. A., Johnson, D. I., Farnsworth, C. C., Gelb, M. H., Judd, S. R., Glomset, J. A. and Tamanoi, F. (1991) Protein geranylgeranyltransferase of Saccharomyces cerevisiae is specific for Cys-Xaa-Xaa-Leu motif and requires the CDC43 gene product but not the DPR1 gene product. Proc. Natl. Acad. Sci. USA 88, 4448-4452. […] On the other hand, the structure of the compounds P1-F11, P2-B7 and P2-E9 resemble those of GGTIs. The FTI P1-F11 resembles the GGTI P1-F10, while the FTI P2-B7 resembles the GGTI P2-C10. The FTI P2-E9 is similar to the GGTI P2-G3. Similarity of some GGTI and FTI compounds may point to common structural features between the two closely related enzymes. As described before, FTase and GGTase I have similar three-dimensional structures and a shared alpha subunit. On the other hand, FTase specific inhibitors may recognize a region(s) that is different between the two enzymes.
Examples 2-8 illustrate assays of bioactivity. These methods are applicable to the compounds of the present invention having the particular linkers and scaffolds described herein, to determine their activity. […] Varying concentrations of the two compounds were added to each enzyme reaction. The FTase (protein farnesyltransferase) assay was carried out using K-Ras4B as a substrate protein, FTase (JENA Bioscience, San Diego, Calif.) and [3H]farnesyl pyrophosphate. Incubation was for 30 min at 37° C.
GGTase-I and FTase activities were determined by following the incorporation of radiolabeled isoprenoid [^3H]-geranylgeranyl or [^3H]-farnesyl into substrate proteins. FTase or GGTase-I (50 nM) were used to initiate reactions containing 0.4 μM of [^3H]-FPP or 0.5 μM of [^3H]-GGPP and 2 μM of MBP-tagged substrates (K-Ras4B for FTase; RhoA for GGTase-I) in 20 μl of buffer {50 mM Tris-HCl (pH 7.5), 10 mM MgCl2, […] and 5 mM DTT}. Inhibitors were added at the indicated concentrations. The final DMSO concentration was 2.5% for all samples.
Reactions were carried out for 10 min at 30° C. The reaction mixture was spotted onto a filter paper, treated with 10% trichloroacetic acid (TCA) followed by ethanol and acetone washing. The filter was counted using a scintillation counter. Kinetic assays in which the GGPP concentration was varied employed fixed concentrations of GGTase-I and RhoA, and reactions were carried out for 5 min. Similarly, fixed concentrations of GGTase-I and GGPP were used when the amount of RhoA was varied.

Assay [3] deals with H-Ras farnesylation in NIH3T3 cells. Put plainly: H-Ras mobility shift immunoblot in NIH3T3 cells. Type of assay: cell-based. The note with it: 48 hours. On the procedure:
K562 cells were treated with modified compounds for 72 hours and then cell number was counted. IC50 values of cell viability relative to the DMSO were measured. […] Data represent the mean+/−S.D. of two measurements from two independent experiments. *, P<0.05 compared with the value for DMSO. […] Whole cell lysates from cells treated with DMSO, P5-H6, P61-A6, GGTI (GGTI-298), FTI (BMS-225975) or RabGGTI (P49-F6) for 48 hours were prepared and processed for immunoblot analysis using antibody against unprenylated form of Rap1 (C: upper panel), Total-Rap1 (C: middle panel), H-Ras (D: upper panel), Rab5b (E: upper panel) or actin (C, D, and E: lower panel). The immunoblots shown represent two independent experiments for each treatment.
This was examined by using a farnesylated protein H-Ras.
(In western blotting, separated proteins are transferred to a membrane and probed.)

The target in the next assay is T2, GGTase-I (Rattus norvegicus, UniProt P53610+Q04631).
T2 construct: purchased JENA BIOSCIENCE
Put plainly: In vitro GGTase-I enzyme assay (IC50, kinetics). Type of assay: biochemical. The procedure, abridged:
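Rat GGTase-I (50 nM) with 0.5 μM [3H]-GGPP and 2 μM MBP-RhoA in Tris-HCl pH 7.5, MgCl2, ZnCl2, DTT, 2.5% DMSO, 10 min at 30 °C; radiolabel incorporation by TCA filter binding and scintillation. Kinetics: 5 min reactions varying GGPP or RhoA at fixed other components.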

Molecules are shown by their SMILES.

For `Cc1ccccc1S(=O)(=O)N1C(c2ccc(Cl)cc2)CC=C(C(=O)O)[C@@H]1c1ccccc1` (stereo partly drawn) [drawing 33], the “% activity of GGTase I for RhoA in the presence of the compound” value in assay [1] stood at 8.8%. For the same molecule, in assay [2] (compound 50 μM, DMSO = 100%, smaller = better inhibition, 50 µM), the “% activity of GGTase I for K-Ras4B in the presence of the compound” value came out at 10.6%.
As for `COC(=O)[C@H](CC(C)C)NC(=O)c1ccc(NC[C@@H](N)CS)cc1-c1cccc2ccccc12` [GGTI-298, reference compound], the “inhibition of FTase activity (FIG. 16)” value on FTase is reported as “little inhibition”. For the same molecule, the “mobility shift of H-Ras (protein farnesylation)” value in assay [3] was “no such mobility shift”. The “inhibition of GGTase I (FIG. 16 controls)” value at GGTase-I was “inhibits GGTase I”. The “relative inhibition of RhoA-driven versus K-Ras4B-driven GGTase I activity” value in assay [2] (pilot screen 100 μM, library screen 50 μM) is listed as “inhibit RhoA-driven GGTase I activity slightly better than K-Ras4B-driven GGTase I activity”.

For the origin of these results see patent US8815935B2, “Inhibitors of protein prenyltransferases” (The Regents of the University of California, priority 2008, dated 2014).
